{
  "source": "patent US10913744B2",
  "about": "“LRRK2 inhibitors and methods of making and using the same” (Dana-Farber Cancer Institute, Inc., priority 2015, dated 2021)",
  "key": {"EPH-A4": {"target": "EPH-A4 (Homo sapiens (Human), UniProt P54764)", "sequence (P54764 20-986, species assumed)": "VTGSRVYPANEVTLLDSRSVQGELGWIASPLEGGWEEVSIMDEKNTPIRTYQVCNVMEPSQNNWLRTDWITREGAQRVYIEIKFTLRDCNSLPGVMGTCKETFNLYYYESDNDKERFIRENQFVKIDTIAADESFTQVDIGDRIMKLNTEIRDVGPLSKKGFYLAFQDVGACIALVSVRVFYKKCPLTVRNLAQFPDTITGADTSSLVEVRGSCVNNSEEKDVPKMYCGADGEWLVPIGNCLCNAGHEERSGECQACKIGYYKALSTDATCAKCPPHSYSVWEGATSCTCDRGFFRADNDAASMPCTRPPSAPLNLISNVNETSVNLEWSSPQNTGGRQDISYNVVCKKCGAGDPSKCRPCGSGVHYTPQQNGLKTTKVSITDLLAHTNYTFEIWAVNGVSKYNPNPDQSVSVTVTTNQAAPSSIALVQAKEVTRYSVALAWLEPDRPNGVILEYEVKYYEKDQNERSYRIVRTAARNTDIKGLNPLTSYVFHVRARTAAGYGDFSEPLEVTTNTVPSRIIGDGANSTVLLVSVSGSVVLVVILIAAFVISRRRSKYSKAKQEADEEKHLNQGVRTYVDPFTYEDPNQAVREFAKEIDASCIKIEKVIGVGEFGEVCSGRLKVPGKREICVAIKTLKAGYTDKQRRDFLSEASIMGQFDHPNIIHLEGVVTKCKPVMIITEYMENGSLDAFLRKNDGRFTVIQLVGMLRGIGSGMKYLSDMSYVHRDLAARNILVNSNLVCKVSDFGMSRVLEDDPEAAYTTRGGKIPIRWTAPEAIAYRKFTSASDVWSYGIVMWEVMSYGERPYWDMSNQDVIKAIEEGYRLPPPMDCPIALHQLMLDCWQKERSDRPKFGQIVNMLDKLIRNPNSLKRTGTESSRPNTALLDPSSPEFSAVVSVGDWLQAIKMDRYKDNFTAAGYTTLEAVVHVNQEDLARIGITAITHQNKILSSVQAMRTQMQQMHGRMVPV", "assay": "Dundee profiling"}, "CK1δ": {"target": "CK1δ (Homo sapiens (Human), UniProt P48730)", "sequence (P48730 whole entry)": "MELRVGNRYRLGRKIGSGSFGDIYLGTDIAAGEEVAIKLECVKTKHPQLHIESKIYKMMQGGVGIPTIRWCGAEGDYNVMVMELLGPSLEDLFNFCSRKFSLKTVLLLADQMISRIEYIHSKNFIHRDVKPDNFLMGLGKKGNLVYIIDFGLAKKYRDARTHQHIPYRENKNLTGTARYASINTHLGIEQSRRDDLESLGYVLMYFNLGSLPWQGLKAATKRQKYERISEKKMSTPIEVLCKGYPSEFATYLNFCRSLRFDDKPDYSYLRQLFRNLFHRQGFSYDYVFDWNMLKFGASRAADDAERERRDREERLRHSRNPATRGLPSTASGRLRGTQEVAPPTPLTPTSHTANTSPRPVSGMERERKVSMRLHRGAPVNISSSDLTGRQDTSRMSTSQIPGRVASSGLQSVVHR", "assay": "Dundee profiling"}, "[1]": {"conditions": "read-out: percent remaining enzymatic activity, I1, 1 μM"}, "[2]": {"conditions": "read-out: percent remaining enzymatic activity, I10"}},
  "note": "Where two headings read alike, the source gives them in different places.",
  "data": [
    {"smiles": "CNc1nc(Nc2ccc(C(=O)N3CCOCC3)cc2OC)nc2[nH]cc(Cl)c12", "note": "[Compound 18, (4-((5-chloro-4-(methylamino)-7H-pyrrolo[2,3-d]pyrimidin-2-yl)amino)-3-methoxyphenyl)(morpholino)methanone]", "values": [
      {"measurement": "remaining activity at 1 µM", "setting": "EPH-A4; [1]", "result": 107, "unit": "%"},
      {"measurement": "remaining activity at 1 µM", "setting": "EPH-A4; [2]", "result": 102, "unit": "%"},
      {"measurement": "remaining activity at 1 µM", "setting": "CK1δ; [1]", "result": 74, "unit": "%"},
      {"measurement": "remaining activity at 1 µM", "setting": "CK1δ; [2]", "result": 33, "unit": "%"}
    ]}
  ]
}
